In patent publication US12421222B2 (AUGUSTINE THERAPEUTICS, priority 2021, dated 2025) one finds IC50 data, which are given here for 32 compounds.

Usually pIC50 stands for −log10 of the IC50, conventionally taken in molar units.

pIC50: −log10 of the molar value. A value given as a limit tells only on which side of the number the result lay.

The test system of this assay is acetylated tubulin (Lys40) in HeLa cells. The assay is described as follows: Acetylated α-tubulin measurement in vitro (immunocytochemistry). It is filed as cell-based. Particulars: Homo sapiens, 6 hours incubation, acetylated tubulin (Lys40) by immunocytochemistry, read-out: IC50 (Tubulin deacetylation). An outline of the steps:
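HeLa cells in serum-free medium treated 6 h at 37 °C (final DMSO 0.1–0.4%), then PFA-fixed and immunostained for acetyl-Lys40 and total α-tubulin; high-content imaging.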

For `O=C(CO)NCc1ccc(C(=O)CSc2nc(C(F)(F)F)nc3ncccc23)s1` [Example 113, 2-hydroxy-N-((5-(2-((2-(trifluoromethyl)pyrido[2,3-d]pyrimidin-4-yl)thio)acetyl)thiophen-2-yl)methyl)acetamide], the pIC50 was at least 7.00.
As for `O=C(CSc1nc(C(F)(F)F)nc2ncccc12)c1ccc(CNC(=O)C2CC2(F)F)s1` (centres unmarked) [Example 114, 2,2-difluoro-N-((5-(2-((2-(trifluoromethyl)pyrido[2,3-d]pyrimidin-4-yl)thio)acetyl)thiophen-2-yl)methyl)cyclopropane-1-carboxamide], the negative-log IC50 (pIC50) is at least 7.00.
The result for `COc1ccc2nc(C)nc(SCC(=O)c3ccc(CCN4CCC(O)C4=O)s3)c2c1` (centres unmarked) [Example 115, 3-hydroxy-1-(2-(5-(2-((6-methoxy-2-methylquinazolin-4-yl)thio)acetyl)thiophen-2-yl)ethyl)pyrrolidin-2-one] reads 6.00 to 6.30; that for `CN(Cc1ccc(C(=O)CSc2nc(C(F)(F)F)nc3nn(C)cc23)s1)C(=O)CO` [Example 116, 2-hydroxy-N-methyl-N-((5-(2-((2-methyl-6-(trifluoromethyl)-2H-pyrazolo[3,4-d]pyrimidin-4-yl)thio)acetyl)thiophen-2-yl)methyl)acetamide], 6.30 to 7.00.
To `O=C(CO)NCc1ccc(C(=O)CSc2nc3ccc(C(F)(F)F)nc3o2)s1` [Example 117, 2-hydroxy-N-((5-(2-((5-(trifluoromethyl)oxazolo[5,4-b]157yrrolid-2-yl)thio)acetyl)thiophen-2-yl)methyl)acetamide] belongs at least 7.00; to `O=C(CO)NCc1ccc(C(=O)CSc2nc3ncc(C(F)(F)F)cc3o2)s1` [Example 118, 2-hydroxy-N-((5-(2-((6-(trifluoromethyl)oxazolo[4,5-b]157yrrolid-2-yl)thio)acetyl)thiophen-2-yl)methyl)acetamide], 6.30 to 7.00.
To `Cc1nc(SCC(=O)c2ccc(CNC(=O)CO)s2)c2cc(C(F)(F)F)cnc2n1` [Example 119, 2-hydroxy-N-((5-(2-((2-methyl-6-(trifluoromethyl)pyrido[2,3-d]pyrimidin-4-yl)thio)acetyl)thiophen-2-yl)methyl)acetamide] belongs at least 7.00.
Regarding `Cc1nc(SCC(=O)c2ccc(CNC(=O)C3CC3(F)F)s2)c2cc(OC(F)(F)F)ccc2n1` (centres unmarked) [Example 120, 2,2-difluoro-N-((5-(2-((2-methyl-6-(trifluoromethoxy)quinazolin-4-yl)thio)acetyl)thiophen-2-yl)methyl)cyclopropane-1-carboxamide], the pIC50 was 6.30 to 7.00.
To `COc1cc2c(SCC(=O)c3ccc(CNC(=O)CO)s3)nc(C)nc2cn1` [Example 121, 2-hydroxy-N-((5-(2-((6-methoxy-2-methylpyrido[3,4-d]pyrimidin-4-yl)thio)acetyl)thiophen-2-yl)methyl)acetamide] belongs at least 7.00.
Take `O=C(CSc1nc(C(F)(F)F)nc2ncccc12)c1ccc(CNS(=O)(=O)C2CC2)s1` [Example 122, N-((5-(2-((2-(trifluoromethyl)pyrido[2,3-d]pyrimidin-4-yl)thio)acetyl)thiophen-2-yl)methyl)cyclopropanesulfonamide]: the negative logarithm of the IC50 (pIC50) was 6.30 to 7.00.
Regarding `O=C(CSc1nc(C(F)(F)F)nc2ncccc12)c1ccc(CNS(=O)(=O)CC(F)(F)F)s1` [Example 123, 2,2,2-trifluoro-N-((5-(2-((2-(trifluoromethyl)pyrido[2,3-d]pyrimidin-4-yl)thio)acetyl)thiophen-2-yl)methyl)ethane-1-sulfonamide], the negative-log IC50 (pIC50) is 6.30 to 7.00.
As for `Cc1nc(SCC(=O)c2ccc(CNC(=O)CO)s2)c2cc(F)cnc2n1` [Example 124, N-((5-(2-((6-fluoro-2-methylpyrido[2,3-d]pyrimidin-4-yl)thio)acetyl)thiophen-2-yl)methyl)-2-hydroxyacetamide], the pIC50 is at least 7.00.
Consider `COCCn1ncc2c(SCC(=O)c3ccc(CNC(=O)CO)s3)nc(C(F)(F)F)nc21` [Example 125, 2-hydroxy-N-((5-(2-((1-(2-methoxyethyl)-6-(trifluoromethyl)-1H-pyrazolo[3,4-d]pyrimidin-4-yl)thio)acetyl)thiophen-2-yl)methyl)acetamide], for which the negative-log IC50 (pIC50) was at least 7.00.
As for `Cc1nc(SCC(=O)c2ccc(CNC(=O)CO)s2)c2cc(OC(F)(F)F)ccc2n1` [Example 126, 2-hydroxy-N-((5-(2-((2-methyl-6-(trifluoromethoxy)quinazolin-4-yl)thio)acetyl)thiophen-2-yl)methyl)acetamide], the pIC50 is at least 7.00.
The result for `CCS(=O)(=O)NCc1ccc(C(=O)CSc2nc(C(F)(F)F)nc3ncccc23)s1` [Example 127, N-((5-(2-((2-(trifluoromethyl)pyrido[2,3-d]pyrimidin-4-yl)thio)acetyl)thiophen-2-yl)methyl)ethanesulfonamide] reads 6.30 to 7.00; that for `COc1ccc2nc(C)nc(SCC(=O)c3ccc([C@H](C)NC(=O)CO)s3)c2c1` [Example 128, (S)-2-hydroxy-N-(1-(5-(2-((6-methoxy-2-methylquinazolin-4-yl)thio)acetyl)thiophen-2-yl)ethyl)acetamide], 6.30 to 7.00; that for `C[C@H](NC(=O)CO)c1ccc(C(=O)CSc2nc(C(F)(F)F)nc3c2cnn3C)s1` [Example 130, (S)-2-hydroxy-N-(1-(5-(2-((1-methyl-6-(trifluoromethyl)-1H-pyrazolo[3,4-d]pyrimidin-4-yl)thio)acetyl)thiophen-2-yl)ethyl)acetamide], 6.30 to 7.00.
The result for `CN(Cc1ccc(C(=O)CSc2nc(C(F)(F)F)nc3ncccc23)s1)C(=O)CO` [Example 131, 2-hydroxy-N-methyl-N-((5-(2-((2-(trifluoromethyl)pyrido[2,3-d]pyrimidin-4-yl)thio)acetyl)thiophen-2-yl)methyl)acetamide] reads 6.30 to 7.00; that for `COCCn1cc2c(SCC(=O)c3ccc(CNC(=O)CO)s3)nc(C(F)(F)F)nc2n1` [Example 132, 2-hydroxy-N-((5-(2-((2-(2-methoxyethyl)-6-(trifluoromethyl)-2H-pyrazolo[3,4-d]pyrimidin-4-yl)thio)acetyl)thiophen-2-yl)methyl)acetamide], at least 7.00; that for `O=C(CO)NCc1ccc(C(=O)CSc2nc(C(F)(F)F)nc3c2cnn3C2CC2)s1` [Example 133, N-((5-(2-((1-cyclopropyl-6-(trifluoromethyl)-1H-pyrazolo[3,4-d]pyrimidin-4-yl)thio)acetyl)thiophen-2-yl)methyl)-2-hydroxyacetamide], 6.30 to 7.00.
The result for `COc1ccc2nc(C(F)(F)F)nc(SCC(=O)c3ccc(CNC(=O)C(C)(C)O)s3)c2c1` [Example 134, 2-hydroxy-N-((5-(2-((6-methoxy-2-(trifluoromethyl)quinazolin-4-yl)thio)acetyl)thiophen-2-yl)methyl)-2-methylpropanamide] reads 6.30 to 7.00; that for `CCn1cc2c(SCC(=O)c3ccc(CNC(=O)CO)s3)nc(C(F)(F)F)nc2n1` [Example 135, N-((5-(2-((2-ethyl-6-(trifluoromethyl)-2H-pyrazolo[3,4-d]pyrimidin-4-yl)thio)acetyl)thiophen-2-yl)methyl)-2-hydroxyacetamide], at least 7.00.
Take `CCn1ncc2c(SCC(=O)c3ccc(CNC(=O)CO)s3)nc(C(F)(F)F)nc21` [Example 136, N-((5-(2-((1-ethyl-6-(trifluoromethyl)-1H-pyrazolo[3,4-d]pyrimidin-4-yl)thio)acetyl)thiophen-2-yl)methyl)-2-hydroxyacetamide]: the negative logarithm of the IC50 (pIC50) is 6.30 to 7.00.
The result for `COc1ccc2nc(C)nc(SCC(=O)c3ccc(CN4CCOCC4=O)s3)c2c1` [Example 137, 4-((5-(2-((6-methoxy-2-methylquinazolin-4-yl)thio)acetyl)thiophen-2-yl)methyl)morpholin-3-one] reads 6.30 to 7.00.
To `O=C(CSc1nc(C(F)(F)F)nc2ncccc12)c1ccc(CN2CCOCC2=O)s1` [Example 138, 4-((5-(2-((2-(trifluoromethyl)pyrido[2,3-d]pyrimidin-4-yl)thio)acetyl)thiophen-2-yl)methyl)morpholin-3-one] belongs 6.30 to 7.00; to `COc1ccc2nc(C(F)F)nc(SCC(=O)c3ccc(CNC(=O)CO)s3)c2c1` [Example 139, N-((5-(2-((2-(difluoromethyl)-6-methoxyquinazolin-4-yl)thio)acetyl)thiophen-2-yl)methyl)-2-hydroxyacetamide], 6.30 to 7.00; to `COc1cnc2nc(C)nc(SCC(=O)c3ccc(CNC(=O)CO)s3)c2c1` [Example 140, 2-hydroxy-N-((5-(2-((6-methoxy-2-methylpyrido[2,3-d]pyrimidin-4-yl)thio)acetyl)thiophen-2-yl)methyl)acetamide], 6.30 to 7.00.
The result for `COc1ccc2nc(C)nc(SCC(=O)c3ccc(CN4CCC(O)C4=O)s3)c2c1` (centres unmarked) [Example 141, 3-hydroxy-1-((5-(2-((6-methoxy-2-methylquinazolin-4-yl)thio)acetyl)thiophen-2-yl)methyl)pyrrolidin-2-one] reads 6.30 to 7.00; that for `Cc1nc(SCC(=O)c2ccc(CNC(=O)CO)s2)c2cc(Cl)cc(F)c2n1` [Example 142, N-((5-(2-((6-chloro-8-fluoro-2-methylquinazolin-4-yl)thio)acetyl)thiophen-2-yl)methyl)-2-hydroxyacetamide], at least 7.00.
As for `COc1cccc2nc(C)nc(SCC(=O)c3ccc(CNC(=O)CO)s3)c12` [Example 143, 2-hydroxy-N-((5-(2-((5-methoxy-2-methylquinazolin-4-yl)thio)acetyl)thiophen-2-yl)methyl)acetamide], the negative logarithm of the IC50 (pIC50) is 6.30 to 7.00.
Consider `CCOc1ccc2nc(C)nc(SCC(=O)c3ccc(CNC(=O)CO)s3)c2c1` [Example 144, N-((5-(2-((6-ethoxy-2-methylquinazolin-4-yl)thio)acetyl)thiophen-2-yl)methyl)-2-hydroxyacetamide], for which the negative logarithm of the IC50 (pIC50) was at least 7.00.
For the compound `CCOc1cc2c(SCC(=O)c3ccc(CNC(=O)CO)s3)nc(C)nc2cn1` [Example 145, N-((5-(2-((6-ethoxy-2-methylpyrido[3,4-d]pyrimidin-4-yl)thio)acetyl)thiophen-2-yl)methyl)-2-hydroxyacetamide], the negative-log IC50 (pIC50) was at least 7.00.
